Holding throughout (assay): NCI anticancer screen, dose series, 48 h
In test [1] the test system is OVCAR-3.
For test [2], the system named is A498.
Test [3] has as its system UO-31.
In test [4] the test system is SR.
Test [5] has as its system RXF 393.
The subject of test [6] is EKVX.
In test [7] the test system is ACHN.
The test system of test [8] is SK-MEL-5.
Test [9] concerns UACC-62.
The subject of test [10] is KM12.
Test [11] deals with RPMI-8226.
Test [12] has as its system NCI-H522.
Test [13] concerns HOP-62.
The test system of test [14] is KM-20L2.
For test [15], the system named is OVCAR-5.
Test [16] deals with SF-268.
The test system of test [17] is HOP-92.
For test [18], the system named is T47D.
The test system of test [19] is PC-3.
Test [20] concerns Hs-578T.

This is an account of results in ChEMBL document CHEMBL1201862, “PubChem BioAssay data set” (2004).

SMILES strings stand for the structures.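 Exposure lasted 48 hours, with cells grown in 96-well plates and compounds tested at five concentrations. The concentration for 50% growth inhibition is given as GI50.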 Activity calls are given as the source filed them. Cut-off read from the data, not from the text of the source: active = GI50 up to about 1.1 µM and inactive = higher.

`CNS(=O)(=O)NN(C)S(=O)(=O)c1ccc(Br)cc1`: the GI50 in test [1], in [2], in test [3], in [4], in [5] and in test [6] was > 100 µM (inactive) each time. Further, the GI50 in test [7], in test [8], in test [9], in [10], in test [11] and in test [12] was > 100 µM (inactive) each time. Further, the GI50 in test [13] and in [14] was > 100 µM (inactive) each time.

As to `O=C(CC1C(=O)Nc2ccccc2S1(=O)=O)Nc1cccc(Cl)c1` (stereo not given), the GI50 in test [15] was 23.2 µM (inactive); in [1], 15.6 µM (inactive); in test [2], 18.9 µM (inactive); in test [3] it was 16.6 µM (inactive); in [4], 18.2 µM (inactive); in test [16] it was 16.2 µM (inactive). Moreover, the GI50 is 16.3 µM (inactive) in [5]; 17.2 µM (inactive) in test [6]; 16.9 µM (inactive) in [7]; 16.1 µM (inactive) in test [17]; 19.1 µM (inactive) in test [8]; 15.1 µM (inactive) in [9]. The GI50 in test [11] is 3.93 µM (inactive); in test [12] it was 16.9 µM (inactive); in [14], 21.1 µM (inactive).

For the compound `CCC1NCC(=O)c2c1[nH]c1ccccc21` (stereo not given), the GI50 in [15], in [1], in [2], in test [3], in test [4] and in [16] was > 100 µM (inactive) in each case. For the same compound, the GI50 in [6], in [7], in [17], in [8], in [9] and in test [10] was > 100 µM (inactive) each time. For the same compound, the GI50 in test [11] is > 100 µM (inactive); in test [12], 91.6 µM (inactive); in test [14], > 100 µM (inactive).

Consider `O=C1OC2C(O)COC2(O)C1(O)C(C[N+](=O)[O-])c1ccc(Cl)cc1` (stereo not given), for which the GI50 in test [15] was 16.4 µM (inactive); in test [1], 7.19 µM (inactive); in [2], 4.8 µM (inactive); in test [3], 8.79 µM (inactive); in test [4] it was 4.26 µM (inactive); in [16], 9.79 µM (inactive). Also, the GI50 in test [5] was 3.29 µM (inactive); in test [6], 23.6 µM (inactive); in test [7] it was 12.4 µM (inactive); in [17], 28.7 µM (inactive); in [8], 8.17 µM (inactive); in test [9], 10 µM (inactive). Further, the GI50 in test [10] was 7.36 µM (inactive); in [11] it was 0.959 µM (active); in test [12], 9.27 µM (inactive); in test [18], 13.8 µM (inactive); in test [13], 20.6 µM (inactive); in test [19], 17 µM (inactive). The GI50 was 13.4 µM (inactive) in test [20] and 2.51 µM (inactive) in test [14].

In the case of `CCOC(=O)C1=C(O)C(=O)c2cc(C)ccc2C1=O`, the GI50 was > 100 µM (inactive) in test [15]; 93.3 µM (inactive) in test [1]; 21.9 µM (inactive) in [2]; > 100 µM (inactive) in test [3]; > 100 µM (inactive) in test [4]; > 100 µM (inactive) in [16]. In addition, the GI50 in [5] is > 100 µM (inactive); in [6] it was > 100 µM (inactive); in test [7], > 100 µM (inactive); in test [17], > 100 µM (inactive); in [8], 31 µM (inactive); in test [9], 44.1 µM (inactive). For the same compound, the GI50 in [10] is > 100 µM (inactive); in test [11], > 100 µM (inactive); in test [12] it was > 100 µM (inactive); in test [13] it was 63.4 µM (inactive); in test [14] it was > 100 µM (inactive).

With `CCOP(=O)(OCC)/C(C#N)=C\c1ccc(OC(C)=O)cc1`, the GI50 in test [15] is > 100 µM (inactive); in test [1], > 100 µM (inactive); in test [2], > 100 µM (inactive); in test [3], > 100 µM (inactive); in test [4], > 100 µM (inactive); in test [16], > 66.2 µM (inactive). For the same compound, the GI50 in test [5], in test [6], in test [7], in [17], in test [8] and in test [9] was > 100 µM (inactive) each time. The GI50 is > 100 µM (inactive) in test [10]; > 100 µM (inactive) in [11]; > 80.2 µM (inactive) in [12]; > 100 µM (inactive) in test [13]; > 100 µM (inactive) in [14].

As for `COC(=O)/C(C#N)=C(\N)C(Cl)(Cl)Cl`, the GI50 is 3.3 µM (inactive) in test [1]; 3.4 µM (inactive) in test [2]; 27.1 µM (inactive) in [3]; 0.449 µM (active) in test [4]; 3.92 µM (inactive) in test [16]; 1.61 µM (inactive) in test [5]. Besides, the GI50 was 4.68 µM (inactive) in test [6]; 2.37 µM (inactive) in test [7]; 2.99 µM (inactive) in test [17]; 1.69 µM (inactive) in [8]; 1.37 µM (inactive) in test [9]; 4.32 µM (inactive) in test [10]. Also, the GI50 in test [11] is 1.57 µM (inactive); in test [12], 1.9 µM (inactive); in [13] it was 16.1 µM (inactive); in [14] it was 29.7 µM (inactive).

For the compound `C[N+](C)(C)CC1CCCC1=O` (stereo not given), the GI50 in [15] is 8.22 µM (inactive); in [1], 2.36 µM (inactive); in [2], 13.1 µM (inactive); in [3] it was 2.5 µM (inactive); in [4], 0.339 µM (active); in test [16], 9.64 µM (inactive). The GI50 in test [5] is 2.27 µM (inactive); in test [6], 2.16 µM (inactive); in test [7] it was 1.09 µM (active); in test [17], 1.07 µM (active); in [8], 5.68 µM (inactive); in [9] it was 1.6 µM (inactive). Besides, the GI50 was 6.59 µM (inactive) in test [10]; 0.306 µM (active) in test [11]; < 0.0105 µM (active) in test [12]; 0.192 µM (active) in test [18]; 29.8 µM (inactive) in test [13]; 1.41 µM (inactive) in test [19]. Further, the GI50 in [20] is 3.43 µM (inactive); in test [14], 2.61 µM (inactive).

Turning to `COc1cc2c(cc1OC)C(=O)C(C1=C(SC(=N)N)C(=O)c3cc(OC)c(OC)cc31)C2` (stereo not given), the GI50 in test [15], in [1], in test [3], in test [4], in [16] and in test [6] was > 100 µM (inactive) in each case. For the same compound, the GI50 in test [7], in [8], in test [9], in test [10], in test [11] and in test [12] was > 100 µM (inactive) each time. Moreover, the GI50 in [13] was 71.4 µM (inactive); in [14] it was > 100 µM (inactive).

With `NC(CCSC(F)F)C(=O)O` (stereo not given), the GI50 in [15], in test [1], in test [3], in [4], in test [16] and in test [5] was > 100 µM (inactive) each time. For the same compound, the GI50 in test [6], in [7], in test [17], in test [8], in test [9] and in test [10] was > 100 µM (inactive) throughout. Moreover, the GI50 in test [12], in [13] and in test [14] was > 100 µM (inactive) each time.

In the case of `O=C1O[B-](c2ccccc2)(c2ccccc2)[NH2+]C1CS` (stereo not given), the GI50 is > 100 µM (inactive) in [15]; 38.8 µM (inactive) in test [1]; 41.8 µM (inactive) in test [2]; 52.2 µM (inactive) in test [3]; 28.8 µM (inactive) in [4]; 96.4 µM (inactive) in test [16]. Further, the GI50 in [5] is 23.3 µM (inactive); in [6], > 100 µM (inactive); in test [7] it was 36.7 µM (inactive); in [17] it was 27.3 µM (inactive); in test [8], 55 µM (inactive); in test [9], 42 µM (inactive). The GI50 in [10] is 31.8 µM (inactive); in test [11], 20.2 µM (inactive); in test [12], 43.3 µM (inactive); in [13], > 100 µM (inactive); in [14] it was 64.7 µM (inactive).
